Test results reported in patent US9049863B2, “Substituted (3R,4R)-4-cyan-3,4-diphenylbutanoates, method for the production thereof and use thereof as herbicides and plant growth regulators” (Bayer Intellectual Property GmbH, priority 2011, dated 2015).

What follows are compounds tested on a plurality of harmful plants (assay: Herbicidal pre-emergence action). Conditions: 320 g or less of active substance per hectare.
Assay type: in vivo
Description: Seeds of monocotyledonous and dicotyledonous weed plants and crop plants are placed in wood-fiber pots in sandy loam and covered with soil. The compounds (I) according to the invention, formulated in the form of wettable powders (WP), are then applied as aqueous suspension or emulsion at a water application rate of 600 l/ha (converted) with the addition of 0.2% of wetting agent to the surface of the covering soil.
After the treatment, the pots are placed in a greenhouse and kept under good growth conditions for the test plants. After about 3 weeks, the effect of the preparations is scored visually in comparison with untreated controls as percentages. For example, 100% activity=the plants have died, 50% herbicidal activity or damage=the plants have been reduced by 50% or the plant mass has been reduced by 50%, 0% activity=like control plants.

| SMILES | herbicidal activity against a plurality of harmful plants |
| --- | --- |
| COC(=O)C[C@@H](c1cccc(F)c1)[C@@H](C#N)c1cccc(F)c1 [Example 2] | good herbicidal activity |
| COC(=O)C[C@@H](c1ccc(Cl)cc1)[C@@H](C#N)c1ccc(F)c(F)c1 [Example 3] | good herbicidal activity |
| COC(=O)C[C@@H](c1ccc(Br)cc1)[C@@H](C#N)c1cccc(F)c1 [Example 4] | good herbicidal activity |
| COC(=O)C[C@@H](c1cccc(F)c1)[C@@H](C#N)c1cccc(Cl)c1 [Example 5] | good herbicidal activity |
| COC(=O)C[C@@H](c1cccc(F)c1)[C@@H](C#N)c1ccc(F)c(F)c1 [Example 6] | good herbicidal activity |
| COC(=O)C[C@@H](c1cccc(F)c1)[C@@H](C#N)c1ccccc1 [Example 7] | good herbicidal activity |
| COC(=O)C[C@@H](c1cccc(F)c1)[C@@H](C#N)c1ccc(F)cc1 [Example 8] | good herbicidal activity |
| COC(=O)C[C@@H](c1cccc(Cl)c1)[C@@H](C#N)c1cccc(F)c1 [Example 9] | good herbicidal activity |
| COC(=O)C[C@@H](c1cccc(Cl)c1)[C@@H](C#N)c1ccc(F)c(F)c1 [Example 10, Methyl (3R,4R)-3-(3-chlorophenyl)-4-cyano-4-(3,4-difluorophenyl)butanoate] | good herbicidal activity |
| COC(=O)C[C@@H](c1cccc(F)c1)[C@@H](C#N)c1cccc(Br)c1 [Example 11] | good herbicidal activity |
| COC(=O)C[C@@H](c1cccc(F)c1)[C@@H](C#N)c1cc(F)cc(F)c1 [Example 12] | good herbicidal activity |
| COC(=O)C[C@@H](c1ccccc1F)[C@@H](C#N)c1cccc(F)c1 [Example 13] | good herbicidal activity |
| COC(=O)C[C@@H](c1ccc(Cl)cc1)[C@@H](C#N)c1cc(F)c(F)c(F)c1 [Example 14] | good herbicidal activity |
| COC(=O)C[C@@H](c1cccc(Cl)c1)[C@@H](C#N)c1ccc(F)cc1 [Example 15] | good herbicidal activity |
| COC(=O)C[C@@H](c1ccc(Cl)c(F)c1)[C@@H](C#N)c1ccc(F)c(F)c1 [Example 16] | good herbicidal activity |
| COC(=O)C[C@@H](c1ccccc1F)[C@@H](C#N)c1ccc(F)c(F)c1 [Example 17] | good herbicidal activity |
| COC(=O)C[C@@H](c1cccc(F)c1F)[C@@H](C#N)c1cccc(F)c1 [Example 18] | good herbicidal activity |
| COC(=O)C[C@@H](c1cc(F)cc(F)c1)[C@@H](C#N)c1ccc(F)cc1 [Example 19] | good herbicidal activity |
| COC(=O)C[C@@H](c1ccc(F)cc1)[C@@H](C#N)c1cccc(F)c1 [Example 20] | good herbicidal activity |
| COC(=O)C[C@@H](c1cc(F)cc(Cl)c1)[C@@H](C#N)c1ccc(F)c(F)c1 [Example 21] | good herbicidal activity |
| COC(=O)C[C@@H](c1cc(F)cc(Cl)c1)[C@@H](C#N)c1cccc(F)c1 [Example 22] | good herbicidal activity |
| COC(=O)C[C@@H](c1cc(F)ccc1F)[C@@H](C#N)c1cccc(F)c1 [Example 23] | good herbicidal activity |
| COC(=O)C[C@@H](c1cccc(F)c1F)[C@@H](C#N)c1ccc(F)c(F)c1 [Example 24] | good herbicidal activity |
| COC(=O)C[C@@H](c1cc(F)ccc1F)[C@@H](C#N)c1ccc(F)c(F)c1 [Example 25] | good herbicidal activity |
